Laboratory results: ChEMBL document CHEMBL2434905, “2-Amino-6-chloro-3,4-dihydroquinazoline: A novel 5-HT3 receptor antagonist with antidepressant character” (Bioorg Med Chem Lett, 2013)

How the values were obtained:
[1] = molecular target: 5-hydroxytryptamine receptor 2C (Homo sapiens, UniProt P28335); experiment: Displacement of [3H]Mesulergine from human recombinant 5-HT2C receptor expressed in HEK cells after 90 mins by scintillation counting analysis; type: cell-based, HEK293
[2] = molecular target: Kappa-type opioid receptor (Homo sapiens, UniProt P41145); experiment: Displacement of [3H]U69593 from kappa opioid receptor (unknown origin) expressed in HEK cells after 90 mins by scintillation counting analysis; type: cell-based, HEK293
[3] = molecular target: 5-hydroxytryptamine receptor 5A (Homo sapiens, UniProt P47898); experiment: Displacement of [3H]LSD from human recombinant 5-HT5A receptor expressed in CHO cells after 90 mins by scintillation counting analysis; type: cell-based
Histamine H3 receptor = Histamine H3 receptor (Homo sapiens, UniProt Q9Y5N1); experiment: Displacement of [3H]-alpha-methylhistamine from human recombinant histamine H3 receptor expressed in HEK cells after 90 mins by scintillation counting analysis; type: cell-based, HEK293
[4] = molecular target: Beta-1 adrenergic receptor (Homo sapiens, UniProt P08588); experiment: Binding affinity to human recombinant beta1-adrenoceptor expressed in CHO cells after 90 mins by radioligand displacement assay; type: cell-based
[5] = molecular target: Muscarinic acetylcholine receptor M4 (Homo sapiens, UniProt P08173); experiment: Binding affinity to human recombinant muscarinic M4 receptor expressed in CHO cells after 90 mins by radioligand displacement assay; type: cell-based
[6] = molecular target: Muscarinic acetylcholine receptor M5 (Homo sapiens, UniProt P08912); experiment: Binding affinity to human recombinant muscarinic M5 receptor expressed in CHO cells after 90 mins by radioligand displacement assay; type: cell-based
D(4) dopamine receptor = D(4) dopamine receptor (Homo sapiens, UniProt P21917); experiment: Displacement of [3H]N-methylspiperone from dopamine D4 receptor (unknown origin) after 90 mins by scintillation counting analysis
Mus musculus [7] = experiment: Toxicity in ICR mouse assessed as total movement time at 1 to 3 mg/kg, ip after 15 to 45 mins by locomotor activity assay relative to vehicle-treated control; type: organism-based; set-up: route intraperitoneal; settings: in vivo
[8] = molecular target: Neuronal acetylcholine receptor; alpha3/beta2 (Homo sapiens, UniProt P17787+P32297); experiment: Displacement of [3H]-epibatidine from human alpha3beta2 nAChR transfected in HEK293 cells by scintillation counting analysis; type: cell-based
[9] = molecular target: Delta-type opioid receptor (Homo sapiens, UniProt P41143); experiment: Displacement of [3H]DADLE from human recombinant delta opioid receptor expressed in HEK cells after 90 mins by scintillation counting analysis; type: cell-based, HEK293
[10] = molecular target: Nicotinic acetylcholine receptor alpha2/beta4 (Homo sapiens, UniProt P02708+P30926); experiment: Displacement of [3H]-epibatidine from human alpha2beta4 nAChR transfected in HEK293 cells by scintillation counting analysis; type: cell-based
[11] = molecular target: 5-hydroxytryptamine receptor 1E (Homo sapiens, UniProt P28566); experiment: Displacement of [3H]5-HT from human recombinant 5-HT1E receptor expressed in HEK cells after 90 mins by scintillation counting analysis; type: cell-based, HEK293
[12] = molecular target: Sodium-dependent dopamine transporter (Homo sapiens, UniProt Q01959); experiment: Displacement of [3H]WIN35428 from human recombinant sodium-dependent dopamine transporter expressed in HEK cells after 90 mins by scintillation counting analysis; type: cell-based, HEK293
[13] = molecular target: 5-hydroxytryptamine receptor 1B (Homo sapiens, UniProt P28222); experiment: Displacement of [3H]5-CT from human recombinant 5-HT1B receptor expressed in HEK cells after 90 mins by scintillation counting analysis; type: cell-based, HEK293
[14] = molecular target: 5-hydroxytryptamine receptor 2B (Homo sapiens, UniProt P41595); experiment: Displacement of [3H]LSD from human recombinant 5-HT2B receptor expressed in HEK cells after 90 mins by scintillation counting analysis; type: cell-based, HEK293
D(3) dopamine receptor = D(3) dopamine receptor (Homo sapiens, UniProt P35462); experiment: Displacement of [3H]N-methylspiperone from dopamine D3 receptor (unknown origin) after 90 mins by scintillation counting analysis
Translocator protein = Translocator protein (Rattus norvegicus, UniProt P16257); experiment: Displacement of [3H]PK11195 from PBR in rat brain after 90 mins by scintillation counting analysis; type: tissue-based
[15] = molecular target: 5-hydroxytryptamine receptor 1A (Homo sapiens, UniProt P08908); experiment: Displacement of [3H]Way100635 from human recombinant 5-HT1A receptor expressed in CHO cells after 90 mins by scintillation counting analysis; type: cell-based
D(2) dopamine receptor = D(2) dopamine receptor (Homo sapiens, UniProt P14416); experiment: Displacement of [[3H]N-methylspiperone from human recombinant dopamine D2 receptor expressed in human fibroblasts after 90 mins by scintillation counting analysis
[16] = molecular target: 5-hydroxytryptamine receptor 1D (Homo sapiens, UniProt P28221); experiment: Displacement of [3H]5-CT from human recombinant 5-HT1D receptor expressed in HEK cells after 90 mins by scintillation counting analysis; type: cell-based, HEK293
[17] = molecular target: T1, 5-hydroxytryptamine receptor 3A (Homo sapiens, UniProt P46098); experiment: Displacement of [3H]GR65630 from human 5-HT3 receptor expressed in African green monkey COS cells after 90 mins by scintillation counting analysis; type: cell-based
T1 sequence (P46098 whole entry): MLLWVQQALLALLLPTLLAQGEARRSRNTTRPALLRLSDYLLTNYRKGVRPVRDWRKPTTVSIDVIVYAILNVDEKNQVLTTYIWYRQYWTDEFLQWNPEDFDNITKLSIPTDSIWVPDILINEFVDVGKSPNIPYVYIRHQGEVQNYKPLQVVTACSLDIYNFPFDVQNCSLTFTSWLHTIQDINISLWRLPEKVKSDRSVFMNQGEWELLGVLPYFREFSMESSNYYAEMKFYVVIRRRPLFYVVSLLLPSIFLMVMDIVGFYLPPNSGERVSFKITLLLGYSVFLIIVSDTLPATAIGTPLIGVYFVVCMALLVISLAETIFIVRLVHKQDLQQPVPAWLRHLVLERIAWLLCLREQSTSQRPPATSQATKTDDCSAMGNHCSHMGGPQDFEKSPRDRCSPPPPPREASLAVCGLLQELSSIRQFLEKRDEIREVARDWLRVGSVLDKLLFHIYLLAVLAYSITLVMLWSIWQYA

[18] = Lipophilicity, log P of the compound by HPLC analysis; type: physicochemical
[19] = molecular target: 5-hydroxytryptamine receptor 7 (Homo sapiens, UniProt P34969); experiment: Displacement of [3H]LSD from human recombinant 5-HT7 receptor expressed in HEK cells after 90 mins by scintillation counting analysis; type: cell-based, HEK293
D(1B) dopamine receptor = D(1B) dopamine receptor (Homo sapiens, UniProt P21918); experiment: Displacement of [3H]SCH23390 from human recombinant dopamine D5 receptor expressed in HEK cells after 90 mins by scintillation counting analysis; type: cell-based, HEK293
Mus musculus [20] = experiment: Antidepressant activity in ip dosed ICR mouse assessed as immobility time by tail suspension test; type: functional
[21] = molecular target: Sigma non-opioid intracellular receptor 1 (Cavia porcellus, UniProt Q60492); experiment: Displacement of [3H]Pentazocine from guinea pig sigma1 receptor after 90 mins by scintillation counting analysis
[22] = molecular target: Sodium-dependent serotonin transporter (Homo sapiens, UniProt P31645); experiment: Displacement of [3H]cfitalopramfrom human recombinant serotonin transporter expressed in HEK cells after 90 mins by scintillation counting analysis; type: cell-based, HEK293
[23] = Displacement of [3H]Flunitrazepam from BZP receptor in rat brain after 90 mins by scintillation counting analysis; type: tissue-based

Sequence of D(4) dopamine receptor (P21917 whole entry): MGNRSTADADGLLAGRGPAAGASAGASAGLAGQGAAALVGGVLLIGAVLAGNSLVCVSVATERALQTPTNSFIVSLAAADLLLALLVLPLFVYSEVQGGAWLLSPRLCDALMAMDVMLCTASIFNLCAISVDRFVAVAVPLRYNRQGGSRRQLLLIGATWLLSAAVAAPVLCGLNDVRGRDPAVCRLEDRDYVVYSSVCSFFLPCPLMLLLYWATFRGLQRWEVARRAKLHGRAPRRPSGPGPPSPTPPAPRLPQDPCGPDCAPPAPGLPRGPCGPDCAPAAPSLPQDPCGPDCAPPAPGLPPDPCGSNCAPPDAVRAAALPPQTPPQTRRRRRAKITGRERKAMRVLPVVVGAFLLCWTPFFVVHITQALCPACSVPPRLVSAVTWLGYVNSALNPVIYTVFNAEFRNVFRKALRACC
Sequence of 5-hydroxytryptamine receptor 7 (P34969 whole entry): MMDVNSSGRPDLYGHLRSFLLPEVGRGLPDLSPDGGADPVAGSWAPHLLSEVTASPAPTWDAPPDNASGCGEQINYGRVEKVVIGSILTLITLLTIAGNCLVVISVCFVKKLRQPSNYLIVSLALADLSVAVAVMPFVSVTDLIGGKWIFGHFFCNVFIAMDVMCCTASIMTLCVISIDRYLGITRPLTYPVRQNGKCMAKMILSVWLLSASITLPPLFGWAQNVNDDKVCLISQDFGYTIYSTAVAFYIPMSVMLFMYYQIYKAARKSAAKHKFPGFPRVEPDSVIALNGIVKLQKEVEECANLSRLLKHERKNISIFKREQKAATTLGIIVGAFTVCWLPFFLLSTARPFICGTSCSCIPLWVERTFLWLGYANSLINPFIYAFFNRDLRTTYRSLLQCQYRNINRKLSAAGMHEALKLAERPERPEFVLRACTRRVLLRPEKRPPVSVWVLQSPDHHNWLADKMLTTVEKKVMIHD
Sequence of Translocator protein (P16257 whole entry, looked up): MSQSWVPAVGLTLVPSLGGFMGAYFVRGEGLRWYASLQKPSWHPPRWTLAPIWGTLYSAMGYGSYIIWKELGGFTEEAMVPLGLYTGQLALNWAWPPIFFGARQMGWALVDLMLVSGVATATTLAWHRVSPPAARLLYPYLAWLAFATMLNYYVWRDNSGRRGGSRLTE
Sequence of Kappa-type opioid receptor (P41145 whole entry): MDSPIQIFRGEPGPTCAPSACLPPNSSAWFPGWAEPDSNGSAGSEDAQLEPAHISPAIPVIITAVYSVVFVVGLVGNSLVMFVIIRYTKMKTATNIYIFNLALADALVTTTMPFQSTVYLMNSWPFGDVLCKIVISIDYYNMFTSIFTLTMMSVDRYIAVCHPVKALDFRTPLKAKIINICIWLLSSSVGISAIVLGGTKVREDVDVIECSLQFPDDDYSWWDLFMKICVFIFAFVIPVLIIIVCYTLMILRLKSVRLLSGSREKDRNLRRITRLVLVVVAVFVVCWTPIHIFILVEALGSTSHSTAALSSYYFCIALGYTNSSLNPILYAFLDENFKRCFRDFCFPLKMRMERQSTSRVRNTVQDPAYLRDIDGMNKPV
Sequence of Sodium-dependent dopamine transporter (Q01959 whole entry): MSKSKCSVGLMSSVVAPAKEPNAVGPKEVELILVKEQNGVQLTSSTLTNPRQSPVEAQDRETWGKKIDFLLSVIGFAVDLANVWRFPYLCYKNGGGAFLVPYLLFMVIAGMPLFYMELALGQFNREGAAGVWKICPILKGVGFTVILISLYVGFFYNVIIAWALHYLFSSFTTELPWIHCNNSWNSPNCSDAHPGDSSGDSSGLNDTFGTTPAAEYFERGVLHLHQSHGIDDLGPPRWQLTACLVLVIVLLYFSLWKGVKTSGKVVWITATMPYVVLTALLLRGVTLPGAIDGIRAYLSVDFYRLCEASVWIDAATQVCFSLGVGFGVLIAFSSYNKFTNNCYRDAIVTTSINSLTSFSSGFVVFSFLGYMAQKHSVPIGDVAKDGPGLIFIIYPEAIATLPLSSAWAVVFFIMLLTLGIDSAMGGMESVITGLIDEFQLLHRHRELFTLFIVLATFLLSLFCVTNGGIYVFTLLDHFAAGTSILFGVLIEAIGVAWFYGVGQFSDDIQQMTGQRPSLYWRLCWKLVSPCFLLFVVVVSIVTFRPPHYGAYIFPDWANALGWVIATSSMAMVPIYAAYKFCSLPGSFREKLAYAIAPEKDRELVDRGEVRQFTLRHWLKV
Sequence of D(1B) dopamine receptor (P21918 whole entry): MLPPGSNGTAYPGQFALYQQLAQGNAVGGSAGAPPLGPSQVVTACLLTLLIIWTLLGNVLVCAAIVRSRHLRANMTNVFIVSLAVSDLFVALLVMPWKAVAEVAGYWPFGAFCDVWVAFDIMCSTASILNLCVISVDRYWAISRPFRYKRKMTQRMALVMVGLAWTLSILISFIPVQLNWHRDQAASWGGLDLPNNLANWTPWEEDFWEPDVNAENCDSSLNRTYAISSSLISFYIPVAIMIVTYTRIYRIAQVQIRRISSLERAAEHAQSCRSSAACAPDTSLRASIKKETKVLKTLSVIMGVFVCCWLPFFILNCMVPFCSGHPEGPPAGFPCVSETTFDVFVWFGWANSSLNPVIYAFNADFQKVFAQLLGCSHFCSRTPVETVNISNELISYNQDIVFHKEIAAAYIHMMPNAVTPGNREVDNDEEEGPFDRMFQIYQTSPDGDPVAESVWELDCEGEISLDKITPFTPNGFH
Sequence of 5-hydroxytryptamine receptor 2C (P28335 whole entry): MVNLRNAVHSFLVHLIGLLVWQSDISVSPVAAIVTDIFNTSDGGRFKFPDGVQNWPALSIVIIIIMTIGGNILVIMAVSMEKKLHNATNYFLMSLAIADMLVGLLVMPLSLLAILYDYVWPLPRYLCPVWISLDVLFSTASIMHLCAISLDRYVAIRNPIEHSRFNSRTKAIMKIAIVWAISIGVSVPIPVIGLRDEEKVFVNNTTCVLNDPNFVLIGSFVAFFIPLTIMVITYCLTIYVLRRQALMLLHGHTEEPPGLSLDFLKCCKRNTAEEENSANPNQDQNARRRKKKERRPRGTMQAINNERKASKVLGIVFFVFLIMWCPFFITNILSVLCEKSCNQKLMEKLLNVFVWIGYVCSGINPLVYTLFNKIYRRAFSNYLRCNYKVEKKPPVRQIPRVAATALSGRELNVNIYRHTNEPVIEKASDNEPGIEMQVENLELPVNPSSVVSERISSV
Sequence of Beta-1 adrenergic receptor (P08588 whole entry): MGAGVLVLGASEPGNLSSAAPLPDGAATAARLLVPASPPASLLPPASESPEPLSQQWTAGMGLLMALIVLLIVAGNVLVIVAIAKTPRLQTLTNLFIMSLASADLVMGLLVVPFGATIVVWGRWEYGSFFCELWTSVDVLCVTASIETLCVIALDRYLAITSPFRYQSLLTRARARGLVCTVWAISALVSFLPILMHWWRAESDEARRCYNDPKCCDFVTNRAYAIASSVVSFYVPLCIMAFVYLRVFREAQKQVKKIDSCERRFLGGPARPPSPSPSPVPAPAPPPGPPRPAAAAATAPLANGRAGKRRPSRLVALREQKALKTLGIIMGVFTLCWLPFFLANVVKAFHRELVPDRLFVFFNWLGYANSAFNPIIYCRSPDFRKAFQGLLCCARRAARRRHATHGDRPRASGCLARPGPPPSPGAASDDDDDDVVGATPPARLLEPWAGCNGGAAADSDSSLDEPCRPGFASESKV
Sequence of 5-hydroxytryptamine receptor 5A (P47898 whole entry): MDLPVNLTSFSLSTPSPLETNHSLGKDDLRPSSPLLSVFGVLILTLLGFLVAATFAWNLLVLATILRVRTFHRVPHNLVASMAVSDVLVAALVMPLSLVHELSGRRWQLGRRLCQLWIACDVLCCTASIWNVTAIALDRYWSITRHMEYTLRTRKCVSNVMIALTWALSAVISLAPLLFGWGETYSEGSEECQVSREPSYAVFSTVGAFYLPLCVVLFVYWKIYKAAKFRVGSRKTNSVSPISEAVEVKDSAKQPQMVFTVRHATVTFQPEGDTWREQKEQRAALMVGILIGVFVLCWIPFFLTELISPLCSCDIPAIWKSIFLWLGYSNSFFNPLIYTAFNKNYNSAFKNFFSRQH
Sequence of Sodium-dependent serotonin transporter (P31645 whole entry): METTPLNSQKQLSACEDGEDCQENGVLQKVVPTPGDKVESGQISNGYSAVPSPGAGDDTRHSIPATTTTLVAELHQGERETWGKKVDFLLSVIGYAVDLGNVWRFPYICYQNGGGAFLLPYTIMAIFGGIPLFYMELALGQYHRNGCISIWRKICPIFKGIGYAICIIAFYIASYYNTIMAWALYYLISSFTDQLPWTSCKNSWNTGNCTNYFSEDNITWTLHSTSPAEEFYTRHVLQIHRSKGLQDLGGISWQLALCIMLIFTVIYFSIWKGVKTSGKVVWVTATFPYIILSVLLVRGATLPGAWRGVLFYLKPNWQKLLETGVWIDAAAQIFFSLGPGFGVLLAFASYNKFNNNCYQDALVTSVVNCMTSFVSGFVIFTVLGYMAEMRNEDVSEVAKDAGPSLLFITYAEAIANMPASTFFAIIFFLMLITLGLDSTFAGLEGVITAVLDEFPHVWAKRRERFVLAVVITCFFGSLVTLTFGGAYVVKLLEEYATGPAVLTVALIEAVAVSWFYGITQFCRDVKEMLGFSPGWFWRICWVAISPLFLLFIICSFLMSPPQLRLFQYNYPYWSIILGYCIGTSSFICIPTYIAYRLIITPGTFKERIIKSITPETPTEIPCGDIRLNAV
Sequence of Delta-type opioid receptor (P41143 whole entry): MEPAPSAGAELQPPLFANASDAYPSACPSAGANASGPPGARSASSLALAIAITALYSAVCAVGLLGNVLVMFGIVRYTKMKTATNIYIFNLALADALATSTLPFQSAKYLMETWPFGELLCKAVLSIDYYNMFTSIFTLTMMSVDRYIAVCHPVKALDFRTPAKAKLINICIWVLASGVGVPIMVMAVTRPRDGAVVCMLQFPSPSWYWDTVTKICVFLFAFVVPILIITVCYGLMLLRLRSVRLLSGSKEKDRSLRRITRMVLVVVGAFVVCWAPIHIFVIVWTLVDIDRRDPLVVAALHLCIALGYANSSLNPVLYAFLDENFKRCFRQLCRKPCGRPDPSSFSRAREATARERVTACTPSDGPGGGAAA

In the case of `Cl.NC1=Nc2ccc(Cl)cc2CN1`, the Ki [1] is reported as 0.644 µM, the Ki [2] is reported as greater than 10 µM and the Ki [3] is reported as 0.466 µM. For the same molecule, the Ki (Histamine H3 receptor) was greater than 10 µM, the Ki [4] was greater than 10 µM and the Ki [5] was greater than 10 µM. The Ki [6] was greater than 10 µM, the Ki (D(4) dopamine receptor; read-out: Ki) was 5.8 µM and the Ki (D(4) dopamine receptor; read-out: pKi (converted)) was 5.13 µM. For the same molecule, the Activity (Mus musculus [7]) was “Non-toxic”, the Ki [8] was greater than 10 µM and the Ki [9] was greater than 10 µM. For the same molecule, the Ki [10] was greater than 10 µM, the Ki [11] was greater than 10 µM and the Ki [12] was greater than 10 µM. For the same molecule, the Ki [13] was greater than 10 µM, the Ki [14] was 0.565 µM and the Ki (D(3) dopamine receptor) was greater than 10 µM. It also gave a Ki (Translocator protein) greater than 10 µM, a Ki [15] greater than 10 µM and a Ki (D(2) dopamine receptor) greater than 10 µM. It also gave a Ki [16] of 0.684 µM, a Ki [17] of 0.08 µM and a logP [18] of 1.86. It also gave a Ki [19] of 1.16 µM, a Ki (D(1B) dopamine receptor) greater than 10 µM and an ED50 (Mus musculus [20]) of 0.23 mg/kg. It also gave a Ki [21] of 6.15 µM, a Ki [22] greater than 10 µM and a Ki [23] greater than 10 µM.
